The source of these data is patent US20200361871A1 (Enterprise Therapeutics Ltd., priority 2018, published 2020).

The assay deals with human TMEM16A (TMEM16Aabc variant) (Homo sapiens, UniProt Q5XXA6, DEL476-501, form not given). The experiment in a line: Automated whole-cell patch clamp (Qpatch) TMEM16A potentiator assay in FRT cells stably expressing human TMEM16A. The format is cell-based. The note with it: for % Potentiation @ 3.33 μM Avg: 3.33 μM solution of test compound, percentage increase of baseline TMEM16A current; for EC50: calculated EC50, Qpatch TMEM16A current at +70 mV. Put shortly:
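FRT cells stably expressing human TMEM16Aabc were recorded by automated whole-cell patch clamp, with intracellular Ca2+ buffered for ~EC20 activation, holding −70 mV and step to +70 mV at 0.05 Hz. Compound was applied cumulatively, 5 min per concentration. Peak current increase as % of baseline was fitted to give EC50 and maximum efficacy.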

Sequence of human TMEM16A (TMEM16Aabc variant) (Q5XXA6 with tags, fused parts or gaps DEL476-501): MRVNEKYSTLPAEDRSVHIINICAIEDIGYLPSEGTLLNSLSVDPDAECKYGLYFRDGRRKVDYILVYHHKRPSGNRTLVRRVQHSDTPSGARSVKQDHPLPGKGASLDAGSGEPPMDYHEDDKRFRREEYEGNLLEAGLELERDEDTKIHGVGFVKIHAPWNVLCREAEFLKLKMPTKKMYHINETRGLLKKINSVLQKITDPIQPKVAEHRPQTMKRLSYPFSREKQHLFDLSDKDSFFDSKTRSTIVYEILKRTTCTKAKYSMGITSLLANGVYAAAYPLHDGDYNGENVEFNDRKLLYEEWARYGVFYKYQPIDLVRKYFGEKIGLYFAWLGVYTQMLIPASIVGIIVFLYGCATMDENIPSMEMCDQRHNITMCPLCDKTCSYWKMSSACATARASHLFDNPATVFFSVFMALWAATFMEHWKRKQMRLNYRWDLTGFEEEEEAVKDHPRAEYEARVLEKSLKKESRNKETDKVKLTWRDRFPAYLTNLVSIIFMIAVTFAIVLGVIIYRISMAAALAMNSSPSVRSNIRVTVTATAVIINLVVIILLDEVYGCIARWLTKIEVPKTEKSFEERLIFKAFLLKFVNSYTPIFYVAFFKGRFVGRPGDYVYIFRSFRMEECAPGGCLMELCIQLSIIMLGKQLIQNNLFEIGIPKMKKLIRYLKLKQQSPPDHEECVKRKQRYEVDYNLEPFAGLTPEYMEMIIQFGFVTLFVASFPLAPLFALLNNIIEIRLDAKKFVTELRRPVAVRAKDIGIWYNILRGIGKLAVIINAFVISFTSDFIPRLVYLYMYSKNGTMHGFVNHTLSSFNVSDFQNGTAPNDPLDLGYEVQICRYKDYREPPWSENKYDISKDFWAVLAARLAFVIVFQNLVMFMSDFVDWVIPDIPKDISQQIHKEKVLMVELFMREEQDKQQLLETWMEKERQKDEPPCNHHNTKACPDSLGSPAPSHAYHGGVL

Broadly, the EC50 is the concentration needed to bring the measured effect to its halfway point. `O=C(Cc1cc(Cl)ccc1O)Nc1ccnc(C(=O)NCCCc2ccccc2)c1` [Example 35.10, 4-[[2-(5-Chloro-2-hydroxy-phenyl)acetyl]amino]-N-(3-phenylpropyl)pyridine-2-carboxamide]: the “% Potentiation @ 3.33 μM Avg” value is given as 223% and the EC50 was 280 nM.
Consider `O=C(Cc1cc(Cl)ccc1O)Nc1ccnc(C(=O)NC(CO)c2ccccn2)c1` (centres unmarked) [Example 35.11, 4-[[2-(5-Chloro-2-hydroxy-phenyl)acetyl]amino]-N-[2-hydroxy-1-(2-pyridyl)ethyl] pyridine-2-carboxamide], for which the “% Potentiation @ 3.33 μM Avg” value worked out at 107%.
For the molecule `COc1ccc(CNC(=O)c2cc(NC(=O)Cc3cc(Cl)ccc3O)ccn2)nc1` [Example 35.12, 4-[[2-(5-Chloro-2-hydroxy-phenyl)acetyl]amino]-N-[(5-methoxy-2-pyridyl)methyl]pyridine-2-carboxamide], the “% Potentiation @ 3.33 μM Avg” value was 158% and the EC50 was 420 nM.
Consider `CCOC(=O)CC(C)(C)NC(=O)c1cc(NC(=O)Cc2cc(Cl)ccc2O)ccn1` [Example 35.13, ethyl 3-[[4-[[2-(5-chloro-2-hydroxy-phenyl)acetyl]amino]pyridine-2-carbonyl]amino]-3-methyl-butanoate], for which the “% Potentiation @ 3.33 μM Avg” value was 191% and the EC50 was 350 nM.
Consider `CC(C)(CCO)NC(=O)c1cc(NC(=O)Cc2cc(Cl)ccc2O)ccn1` [Example 35.14, 4-[[2-(5-Chloro-2-hydroxy-phenyl)acetyl]amino]-N-(3-hydroxy-1,1-dimethyl-propyl)pyridine-2-carboxamide], for which the “% Potentiation @ 3.33 μM Avg” value is 172% and the EC50 was 270 nM.
The corresponding values for `O=C(Cc1cc(Cl)ccc1O)Nc1ccnc(C(=O)NCc2ccccc2)c1` [Example 35.15, N-Benzyl-4-[[2-(5-chloro-2-hydroxy-phenyl)acetyl]amino]pyridine-2-carboxamide] are 158% and 150 nM.
On to `O=C(Cc1cc(Cl)ccc1O)Nc1ccnc(C(=O)Nc2ccccc2)c1` [Example 35.16, 4-[[2-(5-Chloro-2-hydroxy-phenyl)acetyl]amino]-N-phenyl-pyridine-2-carboxamide], for which the “% Potentiation @ 3.33 μM Avg” value worked out at 85% and the concentration giving a half-maximal response (EC50) is 330 nM.
The corresponding values for `O=C(Cc1cc(Cl)ccc1O)Nc1ccnc(C(=O)N[C@H]2CCC[C@@H]2O)c1` [Example 35.17, 4-[[2-(5-Chloro-2-hydroxy-phenyl)acetyl]amino]-N-[(1S,2S)-2-hydroxycyclopentyl]pyridine-2-carboxamide] are 153% and 150 nM.
With `O=C(Cc1cc(Cl)ccc1O)Nc1ccnc(C(=O)N[C@@H]2CCC[C@@H]2O)c1` [Example 35.18, 4-[[2-(5-Chloro-2-hydroxy-phenyl)acetyl]amino]-N-[(1R,2S)-2-hydroxycyclopentyl]pyridine-2-carboxamide], the “% Potentiation @ 3.33 μM Avg” value is listed as 147% and the EC50 was 430 nM.
The corresponding values for `O=C(Cc1cc(Cl)ccc1O)Nc1ccnc(C(=O)N[C@H]2CCC[C@H]2O)c1` [Example 35.19, 4-[[2-(5-Chloro-2-hydroxy-phenyl)acetyl]amino]-N-[(1S,2R)-2-hydroxycyclopentyl]pyridine-2-carboxamide] are 248% and 470 nM.
Take `CC1(NC(=O)c2cccc(NC(=O)Cc3cc(F)ccc3O)c2)CCCCC1` [Example 35.20, 3-[[2-(5-Fluoro-2-hydroxy-phenyl)acetyl]amino]-N-(1-methylcyclohexyl)benzamide]: the “% Potentiation @ 3.33 μM Avg” value turned out to be 240% and the EC50 was 420 nM.
Consider `C#CC(C)(C)NC(=O)c1cccc(NC(=O)Cc2cc(F)ccc2O)c1` [Example 35.21, N-(1,1-Dimethylprop-2-ynyl)-3-[[2-(5-fluoro-2-hydroxy-phenyl)acetyl]amino]benzamide], for which the “% Potentiation @ 3.33 μM Avg” value is 200% and the EC50 is 410 nM.
Turning to `O=C(Cc1cc(F)ccc1O)Nc1cccc(C(=O)NC2CCCCC2)c1` [Example 35.22, N-Cyclohexyl-3-[[2-(5-fluoro-2-hydroxy-phenyl)acetyl]amino]benzamide], the “% Potentiation @ 3.33 μM Avg” value is 104% and the EC50 is 220 nM.
The matching figures for `C#CC1(NC(=O)c2cc(NC(=O)Cc3cc(Cl)ccc3O)ccn2)CCCCC1` [Example 35.24, 4-[[2-(5-Chloro-2-hydroxy-phenyl)acetyl]amino]-N-(1-ethynylcyclohexyl)pyridine-2-carboxamide]: 120% and 10 nM.
For the molecule `O=C(Cc1cc(Cl)ccc1O)Nc1ccnc(C(=O)NC2(CO)CCC2)c1` [Example 35.25, 4-[[2-(5-Chloro-2-hydroxy-phenyl)acetyl]amino]-N-[1-(hydroxymethyl)cyclobutyl]pyridine-2-carboxamide], the “% Potentiation @ 3.33 μM Avg” value was 126% and the EC50 was 100 nM.
For `O=C(Cc1cc(Cl)ccc1O)Nc1ccnc(C(=O)NC2(CO)COC2)c1` [Example 35.26, 4-[[2-(5-Chloro-2-hydroxy-phenyl)acetyl]amino]-N-[3-(hydroxymethyl)oxetan-3-yl]pyridine-2-carboxamide], the “% Potentiation @ 3.33 μM Avg” value is 157%.
As for `COCC(C)(C#N)NC(=O)c1cc(NC(=O)Cc2cc(Cl)ccc2O)ccn1` (centres unmarked) [Example 35.27, 4-[[2-(5-Chloro-2-hydroxy-phenyl)acetyl]amino]-N-(1-cyano-2-methoxy-1-methyl-ethyl)pyridine-2-carboxamide], the “% Potentiation @ 3.33 μM Avg” value is given as 496% and the EC50 is 330 nM.
On to `CC(C)C(C)(C#N)NC(=O)c1cc(NC(=O)Cc2cc(Cl)ccc2O)ccn1` (centres unmarked) [Example 37, 4-[[2-(5-Chloro-2-hydroxy-phenyl)acetyl]amino]-N-(1-cyano-1,2-dimethyl-propyl)pyridine-2-carboxamide], for which the “% Potentiation @ 3.33 μM Avg” value was determined as 352% and the EC50 was 120 nM.
On to `CC1(NC(=O)c2cc(NC(=O)Cc3cc(Cl)ccc3O)ccn2)CCCC1` [Example 38, 4-[[2-(5-Chloro-2-hydroxy-phenyl)acetyl]amino]-N-(1-methylcyclopentyl)pyridine-2-carboxamide], for which the “% Potentiation @ 3.33 μM Avg” value is reported as 307% and the EC50 is 50 nM.
On to `CC(C)(C)C1CCC(NC(=O)c2cc(NC(=O)Cc3cc(Cl)ccc3O)ccn2)CC1` (centres unmarked) [Example 39, N-(4-tert-Butylcyclohexyl)-4-[[2-(5-chloro-2-hydroxy-phenyl)acetyl]amino]pyridine-2-carboxamide], for which the “% Potentiation @ 3.33 μM Avg” value came out at 262% and the EC50 is 60 nM.
As for `CC(C)(C)NC(=O)c1cc(NC(=O)Cc2cccc(F)c2Cl)ccn1` [Example 40, N-tert-Butyl-4-[[2-(2-chloro-3-fluoro-phenyl)acetyl]amino] pyridine-2-carboxamide], the “% Potentiation @ 3.33 μM Avg” value is reported as 153% and the EC50 was 700 nM.
The matching figures for `CC(C)(C)NC(=O)c1cc(NC(=O)Cc2cc(F)ccc2Cl)ccn1` [Example 40.1, N-tert-Butyl-4-[[2-(2-chloro-5-fluoro-phenyl)acetyl]amino] pyridine-2-carboxamide]: 91% and 870 nM.
`N#CC1(NC(=O)c2cccc(NC(=O)Cc3cc(F)ccc3O)c2)CCOCC1` [Example 41, N-(4-Cyanotetrahydropyran-4-yl)-3-[[2-(5-fluoro-2-hydroxy-phenyl)acetyl]amino] benzamide]: the “% Potentiation @ 3.33 μM Avg” value worked out at 38%.
In the case of `O=C(Cc1cc(Cl)ccc1O)Nc1ccnc(C(=O)NC2(CCO)CCOCC2)c1` [Example 42, 4-[[2-(5-Chloro-2-hydroxy-phenyl)acetyl]amino]-N-[4-(2-hydroxyethyl)tetrahydropyran-4-yl]pyridine-2-carboxamide], the “% Potentiation @ 3.33 μM Avg” value came to 143% and the EC50 is 760 nM.
Turning to `CC(C)(CCNCC(F)(F)F)NC(=O)c1cc(NC(=O)Cc2cc(Cl)ccc2O)ccn1` [Example 43, 4-[[2-(5-Chloro-2-hydroxy-phenyl)acetyl]amino]-N-[1,1-dimethyl-3-(2,2,2-trifluoroethylamino)propyl]pyridine-2-carboxamide], the “% Potentiation @ 3.33 μM Avg” value is on record as 174% and the EC50 was 700 nM.
The corresponding values for `O=C(Cc1cc(Cl)ccc1O)Nc1ccnc(C(=O)NC23CCC(F)(C2)C3)c1` [Example 44, 4-[[2-(5-Chloro-2-hydroxy-phenyl)acetyl]amino]-N-(4-fluoro-1-bicyclo[2.1.1]hexanyl)pyridine-2-carboxamide] are 377% and 50 nM.
Consider `CC(C)(CCNC(=O)C(C)(C)C)NC(=O)c1cc(NC(=O)Cc2cc(Cl)ccc2O)ccn1` [Example 45, 4-[[2-(5-Chloro-2-hydroxy-phenyl)acetyl]amino]-N-[3-(2,2-dimethylpropanoylamino)-1,1-dimethyl-propyl]pyridine-2-carboxamide], for which the “% Potentiation @ 3.33 μM Avg” value was determined as 151%.
Turning to `N#CC1(NC(=O)c2cc(NC(=O)Cc3cc(Cl)ccc3O)ccn2)CCOC1` (centres unmarked) [Example 47, 4-[[2-(5-Chloro-2-hydroxy-phenyl)acetyl]amino]-N-(3-cyanotetrahydrofuran-3-yl)pyridine-2-carboxamide], the “% Potentiation @ 3.33 μM Avg” value was found to be 237% and the EC50 was 180 nM.
In the case of `COC(=O)CC1(NC(=O)c2cc(NC(=O)Cc3cc(Cl)ccc3O)ccn2)CCOCC1` [Example 47.1, Methyl2-[4-[[4-[[2-(5-chloro-2-hydroxy-phenyl)acetyl]amino]pyridine-2-carbonyl]amino]tetrahydropyran-4-yl]acetate], the “% Potentiation @ 3.33 μM Avg” value is on record as 156% and the EC50 was 1920 nM.
As for `COC(=O)C1(NC(=O)c2cc(NC(=O)Cc3cc(Cl)ccc3O)ccn2)CCOCC1` [Example 47.2, Methyl 4-[[4-[[2-(5-chloro-2-hydroxy-phenyl)acetyl]amino]pyridine-2-carbonyl]amino]tetrahydropyran-4-carboxylate], the “% Potentiation @ 3.33 μM Avg” value was found to be 212% and the EC50 is 230 nM.
